Results: PMC7397249, “Properly Substituted Cyclic Bis-(2-bromobenzylidene) Compounds Behaved as Dual p300/CARM1 Inhibitors and Induced Apoptosis in Cancer Cells” (Molecules, 2020)

Legend:
p300 HAT = details: cited from earlier work
EZH2 = details: cited from earlier work
p300 [1] = molecular target: T1, p300 (Homo sapiens, UniProt Q09472); assay: HotSpot HAT activity assay, p300; type: biochemical; details: 10-dose, triplicate, from 200 μM; histone H3, [acetyl-3H]-acetyl-CoA
T1 construct: p300 (aa 1284–1673, 30 nM); purchased Reaction Biology Corporation
T1 sequence (Q09472 1284-1673): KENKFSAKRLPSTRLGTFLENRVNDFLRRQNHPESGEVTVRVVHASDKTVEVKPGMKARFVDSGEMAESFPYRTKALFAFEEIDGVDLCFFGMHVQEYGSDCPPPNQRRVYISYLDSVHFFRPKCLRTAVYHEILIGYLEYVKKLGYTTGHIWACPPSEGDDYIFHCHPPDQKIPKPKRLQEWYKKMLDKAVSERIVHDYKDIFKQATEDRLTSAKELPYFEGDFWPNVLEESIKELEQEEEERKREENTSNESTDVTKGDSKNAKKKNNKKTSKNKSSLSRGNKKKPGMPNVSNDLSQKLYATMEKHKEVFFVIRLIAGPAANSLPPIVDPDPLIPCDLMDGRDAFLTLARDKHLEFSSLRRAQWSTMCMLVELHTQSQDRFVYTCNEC
Protocol: (§1) The newly synthesized compounds 4a–n were tested to determine their effects against acetylation and methylation epigenetic targets. First, 4a–n were screened in vitro against the two HAT enzymes p300 and PCAF. […] To determine the activity against SIRT1 and -2, 4a–n were tested starting from 200 μM solutions using a modified Fluor de Lys fluorescence-based assay with amino acids 379–382 (Arg-His-Lys-Lys(Ac)) of human p53 conjugated with aminomethylcoumarin as substrate and NAD^+ as co-substrate. […] Furthermore, 4a–n were tested against a human five-membered Polycomb repressive complex 2 (PRC2) containing EZH2, embryonic ectoderm development (EED), suppressor of zeste 12 (SUZ12), RbAp48, and adipocyte enhancer-binding protein (AEBP2), to assess their capability to inhibit the catalytic unit EZH2.
(§2) The effect of tested derivatives on the catalytic activity of p300 and PCAF was determined in a HotSpot HAT activity assay by Reaction Biology Corporation (Malvern, PA, USA) according to the company’s standard operating procedure. In brief, the recombinant catalytic domains of PCAF (aa 492–658, 250 nM) or p300 (aa 1284–1673, 30 nM) were incubated with histone H3 as substrate (5 µM) and [Acetyl-^3H]-Acetyl Coenzyme A (3 µM) as an acetyl donor in reaction buffer (50 mM Tris-HCl (pH 8.0), 50 mM NaCl, 0.1 mM EDTA, 1 mM DTT, 1 mM PMSF, 1% DMSO) for 1 h at 30 °C in the presence or absence of a dose titration of the compounds. The reaction mixture was delivered to filter-paper for detection. IC50 values were analyzed using Excel and GraphPad Prism 6.0 software (GraphPad Software Inc., San Diego, CA, USA). The experiments for p300 were performed in triplicate.

SIRT1 = molecular target: T2, SIRT1 (Homo sapiens, UniProt Q96EB6); assay: Modified Fluor de Lys fluorescence-based assay, SIRT1; type: biochemical; details: from 200 μM; p53 379-382 AMC substrate, NAD+
T2 construct: host or cells: E. coli
T2 sequence (Q96EB6 whole entry): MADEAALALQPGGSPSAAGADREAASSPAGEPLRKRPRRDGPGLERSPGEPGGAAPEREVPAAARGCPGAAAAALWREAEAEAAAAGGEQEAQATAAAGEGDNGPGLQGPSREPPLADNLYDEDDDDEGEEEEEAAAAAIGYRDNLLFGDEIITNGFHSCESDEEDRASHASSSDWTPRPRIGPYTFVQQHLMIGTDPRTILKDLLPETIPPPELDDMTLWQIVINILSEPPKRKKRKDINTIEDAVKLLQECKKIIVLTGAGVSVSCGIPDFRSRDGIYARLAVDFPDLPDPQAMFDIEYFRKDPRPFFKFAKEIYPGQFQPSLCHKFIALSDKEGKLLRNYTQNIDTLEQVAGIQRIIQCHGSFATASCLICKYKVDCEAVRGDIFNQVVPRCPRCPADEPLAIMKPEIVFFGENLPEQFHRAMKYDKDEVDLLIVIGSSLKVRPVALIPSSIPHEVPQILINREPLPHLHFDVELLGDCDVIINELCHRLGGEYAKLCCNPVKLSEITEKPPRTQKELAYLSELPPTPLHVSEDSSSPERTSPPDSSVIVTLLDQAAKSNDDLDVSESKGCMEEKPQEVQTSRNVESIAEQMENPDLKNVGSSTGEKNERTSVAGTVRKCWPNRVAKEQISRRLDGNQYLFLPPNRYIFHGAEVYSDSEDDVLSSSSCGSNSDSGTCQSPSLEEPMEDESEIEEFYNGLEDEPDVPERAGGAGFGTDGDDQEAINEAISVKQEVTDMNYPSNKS
Protocol: as §1
(§3) The SIRT inhibition assay was performed using human recombinant SIRT1 and SIRT2 produced in E. coli. Compounds were tested using a modified Fluor de Lys fluorescence-based assay kit based on the method described in the BioMol product sheet (AK-555, AK-556, Milan, Italy). […] The second stage is initiated by the addition of the Developer II (KI176), including nicotinamide (NAM), nicotinamide that stops the SIRT1/2 activity, and the fluorescent signal is produced. The fluorescence was measured on a fluorometric reader (Infinite 200 TECAN, Männedorf, Switzerland) with excitation set at 360 nm and emission detection set at 460 nm.

PRC2/EZH2 = PRC2/EZH2 (Homo sapiens, UniProt Q15910); assay: EZH2/PRC2 assay (core histone, 3H-SAM); type: biochemical; details: 10-dose, duplicate, from 400 μM
Chain of PRC2/EZH2 (Q15022 whole entry): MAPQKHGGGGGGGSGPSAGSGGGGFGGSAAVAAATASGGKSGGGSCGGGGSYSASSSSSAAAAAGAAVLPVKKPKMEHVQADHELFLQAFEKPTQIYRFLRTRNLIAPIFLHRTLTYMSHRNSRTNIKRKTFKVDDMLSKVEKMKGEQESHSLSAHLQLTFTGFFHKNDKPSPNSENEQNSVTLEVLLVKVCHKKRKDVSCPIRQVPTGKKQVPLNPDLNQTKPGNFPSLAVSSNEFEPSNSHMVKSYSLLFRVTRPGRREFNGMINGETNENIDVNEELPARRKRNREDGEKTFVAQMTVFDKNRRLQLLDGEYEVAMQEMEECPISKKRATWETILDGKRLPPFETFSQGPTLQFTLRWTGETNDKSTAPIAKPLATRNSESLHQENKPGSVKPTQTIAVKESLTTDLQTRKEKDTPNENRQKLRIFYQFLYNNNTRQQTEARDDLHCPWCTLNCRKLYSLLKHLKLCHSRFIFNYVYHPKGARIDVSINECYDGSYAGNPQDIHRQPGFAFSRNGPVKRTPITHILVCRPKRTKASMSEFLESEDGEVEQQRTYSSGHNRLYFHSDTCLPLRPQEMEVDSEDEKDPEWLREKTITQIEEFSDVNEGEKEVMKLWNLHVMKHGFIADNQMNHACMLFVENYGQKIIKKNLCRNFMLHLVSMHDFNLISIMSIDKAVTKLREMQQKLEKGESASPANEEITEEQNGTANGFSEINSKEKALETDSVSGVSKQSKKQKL
Chain of PRC2/EZH2 (Q09028 whole entry, further chain): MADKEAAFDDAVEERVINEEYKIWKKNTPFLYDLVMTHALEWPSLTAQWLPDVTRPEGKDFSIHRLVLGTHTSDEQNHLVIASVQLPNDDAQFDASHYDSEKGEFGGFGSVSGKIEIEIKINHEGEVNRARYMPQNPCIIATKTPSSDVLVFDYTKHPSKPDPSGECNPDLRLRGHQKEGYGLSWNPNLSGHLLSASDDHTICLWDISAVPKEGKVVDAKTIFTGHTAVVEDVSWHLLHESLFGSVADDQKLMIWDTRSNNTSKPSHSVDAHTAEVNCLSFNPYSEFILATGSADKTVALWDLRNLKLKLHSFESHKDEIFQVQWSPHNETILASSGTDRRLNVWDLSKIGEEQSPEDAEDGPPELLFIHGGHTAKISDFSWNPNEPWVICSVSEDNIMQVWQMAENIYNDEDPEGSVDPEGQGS
Chain of PRC2/EZH2 (Q6ZN18 whole entry, further chain): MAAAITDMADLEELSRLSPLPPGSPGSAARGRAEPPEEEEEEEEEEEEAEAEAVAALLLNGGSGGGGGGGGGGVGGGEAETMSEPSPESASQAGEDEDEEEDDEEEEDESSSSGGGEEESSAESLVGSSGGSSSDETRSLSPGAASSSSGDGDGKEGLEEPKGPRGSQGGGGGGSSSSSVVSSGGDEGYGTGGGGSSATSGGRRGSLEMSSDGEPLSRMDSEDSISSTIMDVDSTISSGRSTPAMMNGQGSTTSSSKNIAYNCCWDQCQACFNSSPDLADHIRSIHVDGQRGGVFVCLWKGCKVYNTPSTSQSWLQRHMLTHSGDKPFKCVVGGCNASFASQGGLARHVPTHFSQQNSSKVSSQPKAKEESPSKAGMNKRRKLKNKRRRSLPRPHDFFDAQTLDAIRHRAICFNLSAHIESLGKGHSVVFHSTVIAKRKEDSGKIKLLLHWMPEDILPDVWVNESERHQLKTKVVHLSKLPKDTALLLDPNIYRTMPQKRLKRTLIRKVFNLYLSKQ
Chain of PRC2/EZH2 (Q15910 whole entry): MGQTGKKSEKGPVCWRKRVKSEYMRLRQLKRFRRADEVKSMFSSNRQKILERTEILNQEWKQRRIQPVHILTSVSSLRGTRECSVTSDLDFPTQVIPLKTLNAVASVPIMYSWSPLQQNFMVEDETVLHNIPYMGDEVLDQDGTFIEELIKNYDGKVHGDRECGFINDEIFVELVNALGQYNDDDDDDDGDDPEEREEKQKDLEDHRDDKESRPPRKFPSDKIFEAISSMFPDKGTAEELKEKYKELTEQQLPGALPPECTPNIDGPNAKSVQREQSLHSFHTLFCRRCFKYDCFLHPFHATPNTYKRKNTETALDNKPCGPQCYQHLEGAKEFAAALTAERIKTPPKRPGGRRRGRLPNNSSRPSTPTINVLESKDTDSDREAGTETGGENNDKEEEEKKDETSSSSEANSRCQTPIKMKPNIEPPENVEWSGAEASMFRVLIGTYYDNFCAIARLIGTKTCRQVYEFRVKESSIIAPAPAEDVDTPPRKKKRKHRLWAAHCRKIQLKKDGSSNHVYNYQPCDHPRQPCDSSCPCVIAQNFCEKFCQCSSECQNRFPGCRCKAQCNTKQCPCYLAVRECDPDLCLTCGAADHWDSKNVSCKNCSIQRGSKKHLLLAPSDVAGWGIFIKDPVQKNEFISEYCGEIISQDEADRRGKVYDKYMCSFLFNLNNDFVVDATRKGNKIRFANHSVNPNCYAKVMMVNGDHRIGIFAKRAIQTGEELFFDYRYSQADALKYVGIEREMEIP
Chain of PRC2/EZH2 (O75530 whole entry, further chain): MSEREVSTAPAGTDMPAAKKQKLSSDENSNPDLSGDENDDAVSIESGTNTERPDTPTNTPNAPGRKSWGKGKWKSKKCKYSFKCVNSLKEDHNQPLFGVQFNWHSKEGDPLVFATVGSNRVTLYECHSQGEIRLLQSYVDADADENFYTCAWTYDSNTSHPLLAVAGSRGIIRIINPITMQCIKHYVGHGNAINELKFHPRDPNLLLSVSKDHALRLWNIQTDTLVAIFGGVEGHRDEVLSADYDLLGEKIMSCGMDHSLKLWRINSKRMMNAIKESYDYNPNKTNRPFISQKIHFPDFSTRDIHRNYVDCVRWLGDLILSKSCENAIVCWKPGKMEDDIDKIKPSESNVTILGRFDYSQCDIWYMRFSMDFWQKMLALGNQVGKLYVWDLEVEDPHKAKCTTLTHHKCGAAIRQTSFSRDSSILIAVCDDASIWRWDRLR
Protocol: as §1
The EZH2 substrate (0.05 mg/mL core histone) was added in the freshly prepared reaction buffer (50 mM Tris-HCl (pH 8.0), 50 mM NaCl, 1 mM EDTA, 1 mM DTT, 1 mM PMSF, 1% DMSO). The PRC2 complex (complex of human EZH2, human EED, human SUZ12, human AEBP2, and human RbAp48) was delivered into the substrate solution and the mixture was mixed gently. Afterwards, the tested compounds dissolved in DMSO were delivered into the enzyme/substrate reaction mixture by using Acoustic Technology (Echo 550, LabCyte Inc. Sunnyvale, CA, USA) in nanoliter range, and ^3H-SAM was added into the reaction mixture to initiate the reaction. The reaction mixture was incubated for 1 h at 30 °C and then it was delivered to filter-paper for detection. The data were analyzed using Excel and GraphPad Prism software for IC50 curve fits. The experiments were performed in duplicate.

PCAF = molecular target: T3, PCAF (Homo sapiens, UniProt Q92831); assay: HotSpot HAT activity assay, PCAF; type: biochemical; details: 10-dose, from 200 μM; histone H3, [acetyl-3H]-acetyl-CoA
T3 construct: PCAF (aa 492–658, 250 nM); purchased Reaction Biology Corporation
T3 sequence (Q92831 492-658): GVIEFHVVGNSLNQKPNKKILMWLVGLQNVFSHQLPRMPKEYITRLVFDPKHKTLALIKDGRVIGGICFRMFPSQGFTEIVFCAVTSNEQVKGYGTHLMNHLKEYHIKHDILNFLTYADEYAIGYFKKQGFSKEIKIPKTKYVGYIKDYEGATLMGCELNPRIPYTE
Protocol: as §1, §2

CARM1 [2] = molecular target: T4, CARM1 (Homo sapiens, UniProt Q86X55); assay: CARM1 assay (histone H3, 3H-SAM); type: biochemical
T4 sequence (Q86X55 1-608): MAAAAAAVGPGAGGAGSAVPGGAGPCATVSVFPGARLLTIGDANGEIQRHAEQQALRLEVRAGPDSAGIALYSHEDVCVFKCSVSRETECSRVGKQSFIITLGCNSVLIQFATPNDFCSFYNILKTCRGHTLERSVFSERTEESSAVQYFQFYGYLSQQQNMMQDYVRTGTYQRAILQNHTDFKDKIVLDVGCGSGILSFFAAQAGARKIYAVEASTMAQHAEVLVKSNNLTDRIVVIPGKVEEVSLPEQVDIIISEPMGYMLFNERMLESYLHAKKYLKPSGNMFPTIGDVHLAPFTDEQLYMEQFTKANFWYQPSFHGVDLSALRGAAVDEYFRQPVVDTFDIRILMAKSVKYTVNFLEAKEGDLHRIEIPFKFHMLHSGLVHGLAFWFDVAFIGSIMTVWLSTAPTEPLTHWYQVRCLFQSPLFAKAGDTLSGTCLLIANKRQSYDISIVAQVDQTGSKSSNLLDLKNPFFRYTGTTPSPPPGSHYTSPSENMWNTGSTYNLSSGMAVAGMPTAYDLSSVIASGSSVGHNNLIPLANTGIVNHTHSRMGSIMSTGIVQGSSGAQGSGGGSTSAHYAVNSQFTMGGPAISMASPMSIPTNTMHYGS
Protocol: Histone H3 (5 μM) was added in freshly prepared reaction buffer (50 mM Tris-HCl (pH 8.5), 5 mM MgCl2, 50 mM NaCl, 0.01% Brij35, 1 mM DTT, 1% DMSO). CARM1 was delivered into the substrate solution and the mixture was mixed gently. Afterwards, the tested compounds dissolved in DMSO were delivered into the enzyme/substrate reaction mixture by using Acoustic Technology (Echo 550, LabCyte Inc. Sunnyvale, CA) in nanoliter range, and 1 µM ^3H-SAM was also added into the reaction mixture to initiate the reaction. The reaction mixture was incubated for 1 h at 30 °C and then it was delivered to filter-paper for detection. The data were analyzed using Excel and GraphPad Prism software for IC50 curve fits. The experiments were performed in triplicate.

SIRT2 = molecular target: T5, SIRT2 (Homo sapiens, UniProt Q8IXJ6); assay: Modified Fluor de Lys fluorescence-based assay, SIRT2; type: biochemical; details: from 200 μM; p53 379-382 AMC substrate, NAD+
T5 construct: host or cells: E. coli
T5 sequence (Q8IXJ6 whole entry): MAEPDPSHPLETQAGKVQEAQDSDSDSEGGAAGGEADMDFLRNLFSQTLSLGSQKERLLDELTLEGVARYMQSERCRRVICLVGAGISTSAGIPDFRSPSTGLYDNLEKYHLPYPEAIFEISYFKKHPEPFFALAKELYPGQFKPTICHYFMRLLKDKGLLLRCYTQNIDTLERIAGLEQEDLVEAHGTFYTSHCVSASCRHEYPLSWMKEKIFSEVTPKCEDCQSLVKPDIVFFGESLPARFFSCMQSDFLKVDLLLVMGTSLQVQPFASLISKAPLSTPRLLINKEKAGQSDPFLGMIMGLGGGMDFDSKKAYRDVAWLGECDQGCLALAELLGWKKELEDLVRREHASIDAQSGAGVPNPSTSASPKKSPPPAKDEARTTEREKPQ
Protocol: as §1, §3

MCF-7 cells = assay: Cell cycle and apoptosis (sub-G1) analysis by FACS in MCF-7 cells; type: cell-based, human; details: 5 μM, 30 h
Protocol: (§4) Compounds 4a–n were tested at 5 μM for 30 h in NB4 […] and U937 AML cells among hematological cancers, and in MCF-7 breast cancer and SH-SY5Y neuroblastoma cells among solid cancers, to determine their effects in cell cycle and apoptosis induction.
(§5) In the same cell lines, the induction of apoptosis has been evaluated through the percentage of the sub-G1 peaks.
(§6) For colorimetric exclusion, the cells (2 × 10^5 cells/mL) were plated in multiwells in triplicate. After stimulations at different times and concentrations, cells were diluted in the ratio 1:1 in Trypan Blue (Sigma) and counted with an optical microscope. For cell cycle analyses, cells were plated (2 × 10^5 cells/mL) and were harvested, centrifuged at 1200 rpm for 5 min and resuspended in 500 μL of a hypotonic solution containing 1× PBS, Sodium Citrate 0.1%, 0.1% NP-40, RNAase A and […] Propidium Iodide (PI). After 30 min at room temperature (RT) in the dark, samples were acquired by FACS-Calibur (BD Bioscences, San Jose, CA, USA) using CellQuest software (BD Biosciences). The percentage in different phases of the cell cycle was determined by ModFit LT V3 software (Verity). All experiments were performed in triplicate. Cell death was measured as percentage of cells in sub-G1 phase as in [30].

NB4 cells = assay: Cell cycle and apoptosis (sub-G1) analysis by FACS in NB4 cells; type: cell-based, human; details: 5 μM, 30 h
Protocol: as §4, §5, §6

CARM1 [3] = assay: Western blot of H3R17me2 (CARM1) in MCF-7 cells; type: cell-based, human; details: 5 μM, 30 h
Protocol: (§7) In MCF-7 cells, the levels of acetyl-H3, acetyl-H4, H3K27me3, and H3R17me2 were detected by western blot analyses as functional tests for p300 (acH3 and acH4), EZH2 (H3K27me3) and CARM1 (H3R17me2) inhibition in cells, respectively (Figure 5).
(§8) The procedures were performed as described in [30, 31]. Primary antibodies used were: Ac-H3 (Millipore, Milan, Italy); Ac-H4 (Millipore, Milan, Italy); Ac-H3K9-14 (Diagenode, Ougrée, Belgium); Ac-α-tubulin (Sigma-Aldrich), H3K27me3 (Diagenode); H3R17me2 (Diagenode); EZH2 (Abcam, Cambridge, UK). H3 (Sigma-Aldrich), H4 (Abcam), GAPDH (Sigma) and ERKs (Santa Cruz, Biotechnology, TX, USA) were used to normalize the total protein extracts (see also Supplementary Material).

p300 [4] = assay: Western blot of acetylation marks (p300 inhibition) in MCF-7 cells; type: cell-based, human; details: 5 μM, 30 h
Protocol: as §7, §8

SMILES: O=C1/C(=C/c2cccc(Br)c2)CN(Cc2ccccc2)C/C1=C\c1cccc(Br)c1 [Compound 3, 1-benzyl-3,5-bis((E)-3-bromobenzylidene)piperidin-4-one]
- p300 inhibition (in words) (p300 HAT): dual p300/EZH2 inhibitor
- EZH2 inhibition (in words) (EZH2): dual p300/EZH2 inhibitor

SMILES: O=C1/C(=C/c2ccccc2Br)CCC/C1=C\c1ccccc1Br [Compound 4a, 2,6-bis((E)-2-bromobenzylidene)cyclohexan-1-one]
- IC50 (p300 [1]): 1.38 ± 0.24 µM
- IC50 (SIRT1): > 200 µM
- IC50 (PRC2/EZH2): 117 ± 6 µM
- IC50 (PCAF): > 200 µM
- IC50 (CARM1 [2]): 16.8 ± 3.4 µM
- IC50 (SIRT2): > 200 µM
- cell cycle: block in G1/S phase with almost total absence of cells in the G2/M phase (MCF-7 cells): almost total absence of cells

SMILES: O=C1/C(=C/c2ccccc2Br)COC/C1=C\c1ccccc1Br [Compound 4b, 3,5-bis((E)-2-bromobenzylidene)tetrahydro-4H-pyran-4-one]
- IC50 (p300 [1]): 2.56 ± 0.23 µM
- IC50 (SIRT1): > 200 µM
- IC50 (PCAF): > 200 µM
- IC50 (CARM1 [2]): 23.3 ± 0.5 µM
- IC50 (SIRT2): > 200 µM

SMILES: O=C1/C(=C/c2ccccc2Br)CNC/C1=C\c1ccccc1Br [Compound 4c, 3,5-bis((E)-2-bromobenzylidene)piperidin-4-one]
- IC50 (p300 [1]): 23.2 ± 0.51 µM
- IC50 (SIRT1): > 200 µM
- IC50 (PCAF): > 200 µM
- IC50 (CARM1 [2]): 44.8 ± 6 µM
- IC50 (SIRT2): > 200 µM
- cell cycle: block in G1/S phase with almost total absence of cells in the G2/M phase (MCF-7 cells): almost total absence of cells

SMILES: CN1C/C(=C\c2ccccc2Br)C(=O)/C(=C/c2ccccc2Br)C1 [Compound 4d, 3,5-bis((E)-2-bromobenzylidene)-1-methylpiperidin-4-one]
- IC50 (p300 [1]): 2.66 ± 0.15 µM
- IC50 (SIRT1): > 200 µM
- induction of apoptosis, % sub-G1 peaks (NB4 cells): 30 to 40%
- IC50 (PRC2/EZH2): 46.7 ± 1.1 µM
- IC50 (PCAF): > 200 µM
- IC50 (CARM1 [2]): 3.24 ± 1.22 µM
- IC50 (SIRT2): > 200 µM
- cell cycle: block in G1/S phase with almost total absence of cells in the G2/M phase (MCF-7 cells): almost total absence of cells

SMILES: O=C1/C(=C/c2ccccc2Br)CN(CCC(=O)c2ccccc2)C/C1=C\c1ccccc1Br [Compound 4i, 3,5-Bis((E)-2-bromobenzylidene)-1-(3-oxo-3-phenylpropyl)piperidin-4-one]
- IC50 (p300 [1]): 1.57 ± 0.72 µM
- IC50 (SIRT1): > 200 µM
- levels of H3R17me2 (CARM1 [3]): most effective
- IC50 (PRC2/EZH2): 60.6 ± 10.5 µM
- IC50 (PCAF): > 200 µM
- IC50 (CARM1 [2]): 6.96 ± 0.9 µM
- levels of acetyl-H4 (p300 [4]): decrease of the acetylation levels
- levels of acetyl-α-tubulin (p300 [4]): decrease of the acetylation levels
- IC50 (SIRT2): > 200 µM
- melting point: 95 to 97 °C

SMILES: CCCCCCCCCCCCCCCc1cccc(O)c1C(=O)O [anacardic acid, reference compound]
- IC50 (PCAF): 40 ± 10.9 µM
